In patent publication EP0388510A1, “Pharmaceutical compositions and their use in the prophylaxis or the treatment of bacterial infectious diseases” (HOECHST AKTIENGESELLSCHAFT, priority 1989, dated 1990):

Test system: Methicillin-resistente Staphylokokken
Experiment: Minimal inhibitory concentration in the agar dilution test, 39 clinical isolates
Assay type: cell-based
Procedure: Der überraschend gefundene synergistische Effekt einer Kombination von Decaplanin und Cefpirom konnte auch mit 39 klinischen Isolaten (Methicillin-resistente Staphylokokken) gezeigt werden, von denen die meisten eine ausgeprägte Resistenz gegenüber Cefpirom zeigten (MHK > 16 µg/ml). Dazu wurde die minimale Hemmkonzentration im Agarverdünnungstest von Cefpirom, Decaplanin und einer Mischung gleicher Anteile von Cefpirom und Decaplanin bestimmt. Wie Fig. 1 zeigt, ist die antibakterielle Aktivität der Mischung deutlich höher als die jeder Einzelkomponente. Aus Fig. 1 geht hervor, daß die als Beurteilungskriterium üblicherweise herangezogene minimale Hemmkonzentration, bei der 90 % der Stämme gehemmt werden (MHK90%), für die Mischung beider Komponenten mit 0,7 µg/ml am niedrigsten ist. (MHK90% für Decaplanin: 3,5 µg/ml, MHK90% für Cefpirom: 64 µg/ml).

Row | SMILES | MHK90% (minimal inhibitory concentration at which 90 % of the 39 isolates are inhibited, from Fig. 1) | MIC (read-out: MHK) [µg/mL] | MIC90 (read-out: MHK90%) [µg/mL]
1 | CNC(CC(C)C)C(=O)NC1C(=O)NC(CC(N)=O)C(=O)NC2C(=O)NC3C(=O)NC(C(=O)NC(C(=O)O)c4cc(O)cc(O)c4-c4cc3ccc4O)C(OC3CC(C)(N)C(O)C(C)O3)c3ccc(cc3)Oc3cc2cc(c3OC2OC(CO)C(O)C(O)C2OC2OC(C)C(O)C(O)C2O)Oc2ccc(cc2Cl)C1O (stereo not drawn) [Decaplanin] | 3,5 µg/ml | – | –
2 | CO/N=C(\C(=O)N[C@@H]1C(=O)N2C(C(=O)[O-])=C(C[n+]3cccc4c3CCC4)CS[C@H]12)c1csc(N)n1 [Cefpirom] | – | > 16 | 64
